According to PMC7997032, “Organic synthesis and anti-influenza A virus activity of cyclobakuchiols A, B, C, and D” (PLoS ONE, 2021):

Tested on: MDCK cells
Test: MTT assay (cytotoxicity against MDCK cells)
Format: cell-based, canine
Conditions: ≤50 μM, 24 or 72 h
Method in brief: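 Compounds at 0.8–100 μM (final DMSO up to 1%) in DMEM with 1% BSA and 4 mM L-glutamine incubated with cells 24 or 72 h at 37°C, 5% CO2. Viability measured by MTT.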

With `C=C[C@@](C)(/C=C/c1ccc(O)cc1)CCC=C(C)C` [(+)-(S)-bakuchiol, reference compound] the “cell viability / toxicity (MTT)” value was “not affected”.
